Laboratory results taken from PMC9879403, “Oncolytic strategy using new bifunctional HDACs/BRD4 inhibitors against virus-associated lymphomas” (PLOS Pathogens, 2023).
Where two headings read alike, the source gives them in different places.

Key:
[1] = system: HDACs; experiment: HDACs signaling by Western blot (H3K9Ac, H4K9Ac, Acetyl-tubulin); type: cell-based; settings: BCBL-1 cells, 48 h, Western blot
[2] = system: BCP-1; experiment: WST-1 cytotoxicity assay, BCP-1 (KSHV+ PEL); type: cell-based; settings: BCP-1, 72 h
Source text: (§1) Fig 2 Identification of newly synthesized dual inhibitors with anti-PEL activities. (A) The binding mode of (+)-JQ1 with BRD4^BD1 (PDB: 3MXF). BRD4^BD1 is shown as hot pink cartoon with gray surface. Asn140 in BRD4^BD1 is shown as sticks and colored in following pattern: atom C hot pink, atom N dark blue, and atom O yellow. (+)-JQ1 is shown as sticks and colored in following patten: atom C hot pink, atom N dark blue, atom O yellow, atom S golden, and atom Cl green. The solvent exposed region (SEG) of (+)-JQ1 are indicated with white arrow. (B) The binding modes of SAHA and entinostat with HDAC2 (PDB: 3MAX). HDAC2 is shown as blue cartoon with gray surface. Asp181 and His183 in HDAC2 are shown as sticks and colored in following pattern: atom C blue, atom N dark blue, and atom O yellow. The catalytic zinc ion in the active site of HDAC2 is shown as black sphere. SAHA is shown as sticks and colored in following pattern: atom C green, atom N dark blue, and atom O yellow. Entinostat is shown as sticks and colored in following pattern: atom C hot pink, atom N dark blue, and atom O yellow. The SEG of SAHA or entinostat is indicated with white arrow. Hydrogen bonds (H-bonds) are presented by red dash lines. (C) The HDACs/BRD4 dual inhibitors 002-011 were designed by fusing the key pharmacophores of (+)-JQ1 (pink) and HDAC inhibitors (blue), SAHA or entinostat, via various chemical linkers (green). (D) Anti-PEL activities of the new compounds. Five KSHV positive and two KSHV negative lymphoma cell lines were treated with indicated concentrations of these compounds for 72 h. Then the cytotoxicity was determined using the WST-1 assay. (+)-JQ1, SAHA and entinostat were used for the comparisons as single inhibitors. The CC50 for each compound was calculated using GraphPad Prism 5.0 software. Error bars represent S.D. for 3 independent experiments.
(§2) Fig 4 Identification of anti-PEL activities for compound 009 stereoisomers. (A) The chemical structures of anti-HDACs/BRD4 bifunctional molecules 009P1 and 009P2, as well as anti-HDACs or anti-BRD4 mono-functional molecules 009N1, 009N2, 009N3, and 009N4. (B-C) Four KSHV+ PEL cell lines were treated with indicated concentrations of 009P1, 009P2 or 009N1-N4 for 72 h, then the cytotoxicity was determined using the WST-1 assay. (D-I) BCBL-1 cells were treated with these compounds at the respective 2× CC50 for 24 h, then cell cycle (D-F) and apoptosis (G-I) were measured by flow cytometry analysis. Error bars represent S.D. for 3 independent experiments, ** = p<0.01 (vs vehicle control).
(§3) The cell viability following treatment with compounds was assessed by the WST-1 assay (Roche, Indianapolis, Indiana, USA) according to the manufacturer’s protocol as described previously. The absorbance signal was measured using a microplate reader (Biotek Synergy 2). The 50% cytotoxic concentration (CC50) for each compound was calculated from these dose-response curves using the software GraphPad Prism v5.0. Data were normalized as the fold change compared to the DMSO control.

[3] = system: BC-1; experiment: WST-1 cytotoxicity assay, BC-1 (KSHV+ PEL); type: cell-based; settings: Homo sapiens, BC1, 72 h
Source text: as §1, §2, §3

[4] = system: BCBL-1; experiment: WST-1 cytotoxicity assay, BCBL-1 (KSHV+ PEL); type: cell-based; settings: BCBL1, 72 h
Source text: as §1, §2, §3

[5] = system: JSC-1; experiment: WST-1 cytotoxicity assay, JSC-1 (KSHV+ PEL); type: cell-based; settings: 72 h
Source text: as §1, §2, §3

[6] = system: BRD4; experiment: BRD4 signaling by Western blot (c-Myc expression); type: cell-based; settings: BCBL-1 cells, 48 h, Western blot
[7] = system: BJAB.219; experiment: WST-1 cytotoxicity assay, BJAB.219 (KSHV-infected lymphoma); type: cell-based; settings: 50% cytotoxic concentration, 72 h, WST-1; read-out: KSHV-infected lymphomas CC50, BJAB.219
Source text: as §1
BCBL-1 and iSLK.219 cells were kindly provided by Dr. Pinghui Feng (University of Southern California). BL-41, BJAB, BCP-1, BC-1, BC-3, JSC-1, HUVEC cells were purchased from American Type Culture Collection (ATCC), and cultured as recommended by the manufacturer. For making BJAB.219 cells, BJAB cells were infected with rKSHV.219 stock by spinoculation as previously reported by centrifugation at 1500×g for 60 min [31]. Then, puromycin (10 μg/ml) was added into the medium at 72 h post-infection and the medium containing puromycin was replaced twice a week. After 6-week high concentration of puromycin selection, BJAB.219 cells were then cultured in the medium with 0.5 μg/ml puromycin.
The cell viability following treatment with compounds was assessed by the WST-1 assay (Roche, Indianapolis, Indiana, USA) according to the manufacturer’s protocol as described previously. The absorbance signal was measured using a microplate reader (Biotek Synergy 2). […]

[8] = WST-1 cytotoxicity assay, BL-41 (KSHV negative lymphoma); type: cell-based; settings: human
Source text: as §1, §3

[9] = system: HUVEC; experiment: WST-1 cytotoxicity on primary cells HUVEC; type: cell-based, human
Method: as §3
Supplementary file ppat.1011089.s006.tif: S5 Fig Cytotoxicity of tested compounds on HUVEC. The primary cells HUVEC were treated with indicated concentrations of compounds for 72 h, then cell viability was assessed using the WST-1 assay. The CC50 for each compound was calculated from the dose-response curves using Graphpad Prism 5.0 software. Data was normalized as the fold change compared to the DMSO control. (TIF) Click here for additional data file.

[10] = WST-1 cytotoxicity assay, BJAB (KSHV negative lymphoma); type: cell-based; settings: human
Source text: as §1, §3

## Cc1sc2c(c1C)C(c1ccc(Cl)cc1)=N[C@H](CC(=O)O[C@H](C)c1ccc(C(=O)Nc3ccccc3N)cc1)c1nnc(C)n1-2 [009N1, (R)-1-(4-((2-aminophenyl)carbamoyl)phenyl)ethyl 2-((R)-4-(4-chlorophenyl)-2,3,9-trimethyl-6H-thieno[3,2-f][1,2,4]triazolo[4,3-a][1,4]diazepin-6-yl)acetate]
[1]
  H3K9Ac, H4K9Ac and Acetyl-tubulin protein levels: upregulated
[2]; read-out: CC50, BCP-1
  CC50: > 10000 nM
[3]; read-out: CC50, BC-1
  CC50: > 10000 nM
[4]; read-out: CC50, BCBL-1
  CC50: 7560 nM
[5]; read-out: CC50, JSC-1
  CC50: > 10000 nM
[6]
  c-Myc expression: subtle effect

## Cc1sc2c(c1C)C(c1ccc(Cl)cc1)=N[C@H](CC(=O)O[C@@H](C)c1ccc(C(=O)Nc3ccccc3N)cc1)c1nnc(C)n1-2 [009N2, (S)-1-(4-((2-aminophenyl)carbamoyl)phenyl)ethyl 2-((R)-4-(4-chlorophenyl)-2,3,9-trimethyl-6H-thieno[3,2-f][1,2,4]triazolo[4,3-a][1,4]diazepin-6-yl)acetate]
[1]
  H3K9Ac, H4K9Ac and Acetyl-tubulin protein levels: upregulated
[2]; read-out: CC50, BCP-1
  CC50: 7680 nM
[3]; read-out: CC50, BC-1
  CC50: 3120 nM
[4]; read-out: CC50, BCBL-1
  CC50: 1070 nM
[5]; read-out: CC50, JSC-1
  CC50: > 10000 nM
[6]
  c-Myc expression: subtle effect

## COC(=O)c1ccc([C@@H](C)OC(=O)C[C@@H]2N=C(c3ccc(Cl)cc3)c3c(sc(C)c3C)-n3c(C)nnc32)cc1 [009N3, methyl 4-((R)-1-(2-((S)-4-(4-chlorophenyl)-2,3,9-trimethyl-6H-thieno[3,2-f][1,2,4]triazolo[4,3-a][1,4]diazepin-6-yl)acetoxy)ethyl)benzoate]
[2]; read-out: CC50, BCP-1
  CC50: 2430 nM
[3]; read-out: CC50, BC-1
  CC50: 1470 nM
[4]; read-out: CC50, BCBL-1
  CC50: 670 nM
[5]; read-out: CC50, JSC-1
  CC50: 9840 nM
[6]
  c-Myc expression: drastically downregulated

## COC(=O)c1ccc([C@H](C)OC(=O)C[C@@H]2N=C(c3ccc(Cl)cc3)c3c(sc(C)c3C)-n3c(C)nnc32)cc1 [009N4, methyl 4-((S)-1-(2-((S)-4-(4-chlorophenyl)-2,3,9-trimethyl-6H-thieno[3,2-f][1,2,4]triazolo[4,3-a][1,4]diazepin-6-yl)acetoxy)ethyl)benzoate]
[2]; read-out: CC50, BCP-1
  CC50: 530 nM
[3]; read-out: CC50, BC-1
  CC50: 340 nM
[4]; read-out: CC50, BCBL-1
  CC50: 180 nM
[5]; read-out: CC50, JSC-1
  CC50: 2320 nM
[6]
  c-Myc expression: drastically downregulated

## Nc1ccccc1NC(=O)c1ccc(CNC(=O)OCc2cccnc2)cc1 [Entinostat, reference compound]
[7]
  CC50: 180 nM
[8]
  CC50 at 72 h: 570 nM
[2]; read-out: KSHV-infected lymphomas CC50, BCP-1
  CC50: 200 nM
[3]; read-out: KSHV-infected lymphomas CC50, BC-1
  CC50: 300 nM
[4]; read-out: KSHV-infected lymphomas CC50, BCBL-1
  CC50: 170 nM
[9]
  Cytotoxicity in primary cells HUVEC: moderate cytotoxicity
[5]; read-out: KSHV-infected lymphomas CC50, JSC-1
  CC50: 150 nM
[10]
  CC50 at 72 h: 420 nM
